Series [1] is described as follows: Cell based permeability/efflux Caco-2 assay. It counts as in vitro ADME. The note with it: human, Caco-2, 10 μM; for Papp A→B at 120 min, 10 µM: apical to basolateral; for Papp B→A at 120 min, 10 µM: basolateral to apical. As for the experimental part:
Briefly, Permeability in a Caco-2 monolayer was determined at 10 μM. High density Caco-2 cells were obtained with fluent monolayer with trans epithelial electrical resistance (TEER) values greater than 350 ohm·cm^2 in the assay at 21 days of culture in 24 or 96 well insert plates. TEER was measured both before and after performing all the transport experiments. […] Transport buffer, 800 μL Hanks balanced salt sodium (HBSS) (pH 7.4) consisting of 10 mM HEPES without proteins was first dispensed to the basal side of the monolayer. The assay was then initiated by adding 200 μL, of compound solution to the apical side (all test compounds were diluted in HBSS, pH 6.5, with 1% DMSO as co-solvent). Two μL and 200 μL of samples were withdrawn before and at 45- and 120-min post addition of test compound, from the apical donor compartment and the base lateral receiver compartment, respectively. The transwell plates were kept for 120 min of incubation time at 37° C., 5% CO2, 95% relative humidity. At the end of incubation, sample solutions from both donor and receiver wells were mixed with acetonitrile containing internal standard (IS) immediately. Samples were analyzed including starting dosing solution, donor solution, and receiver solution by LC/MS/MS (API-4500). Concentrations of test compound was expressed as area ratio of analytes versus internal standard (IS).
A passive permeability was determined by complete chemical inhibition of the three major efflux transporters, ABCB1 (P-gp), ABCG2 (BCRP) and […] in Caco-2 cells using a cocktail of chemical inhibitors quinidine (P-gp), sulfasalazine (BCRP) and benzbromarone (MRP2)
The mean apparent permeability (Papp, X 10^−[…]) is calculated as follows
[formula] Where dq/dt=rate of transport (rate of transport of compound in the receiver compartment), Co=initial concentration in the donor compartment, A=surface area of the effective filter membrane. Plot the cumulative amount of transported drug against time to obtain rate transport. The percent recovery was calculated using the following equation

In series [2] the test system is human Peripheral blood mononuclear cells (PBMCs). The series is described as follows: Cytokine restoration assay in human PBMCs (IL-2, TNF-α) under NECA. It counts as cell-based. The note with it: PBMC, NECA 5 μM, anti CD3/28 Dynabeads, 48 hours. The text has this:
The ability of the invention compounds disclosed herein to restore the cytokines (IL-2 and TNF-α) release under adenosine agonist (NECA) environment evaluated using human Peripheral blood mononuclear cells (PBMCs). Peripheral blood was collected from healthy adult individuals in vacutainer tube. Peripheral blood mononuclear cells (PBMCs) were isolated via density gradient centrifugation, which uses Ficoll (Histopaque buffer) combined with short, low-speed centrifugation, to separate different cell populations. Diluted defibrinated blood was layered on a Ficoll and centrifuged at 1800 rpm for 20 minutes at 22° C. Differential migration of cells during centrifugation results in the formation of layers containing different cell types. The bottom layer contains erythrocytes. Remaining cells (i.e., lymphocytes, monocytes, and platelets) that are not dense enough to penetrate the Ficoll media layers (densities of 1.0770 g/ml), forms a buffy coat at the interface between the upper plasma layer and the Ficoll media layer. After carefully collected the buffy coat excess of platelets, Ficoll and plasma were removed by washing it with isotonic sterile phosphate buffered saline (PBS) and resulting cell pellet was resuspended in RPMI media with 5% FBS an P/S. The isolated PBMCs were allowed to be conditioned for an hour at 37° C. in a CO2 incubator. These cells were subsequently used for specific downstream assay. Isolated PBMC (3×10^5 cells/200 μl) were plated in 96 well microtiter plate in RPMI media with 5% FBS in presence of 100 units of penicillin plus 100 μg/ml streptomycin. NECA was added at a final concentration of 5 μM, control wells were maintained without NECA suppression (i.e., no NECA control). The assay plates were incubated at 37° C. for 4 hours in a CO2 incubator. Various concentrations of test compounds were added into respective wells in triplicates. Pre-washed anti CD3/28 Dynabeads (2.5 μL) was added for CD4 and CD8 + T-cell stimulation (to obtain a bead-to-cell ratio of 1:1). The assay plate was incubated at 37° C. in 5% CO2 and 20% ambient O2 maximum for 48 hours. At the end of 48 hours, the activated PBMC were harvested, and culture supernatants were used directly for further analysis. Forty-eight hours post treatment, 15 μL of cell-free supernatant was collected and assayed for secreted IL2 using the human Interleukin 2 (hIL2)—LANCE Ultra Detection Kit (Perkin Elmer). Similarly, level of soluble Tumor Necrosis Factor alpha (TNFα) was determined using human TNFα LANCE Ultra Detection Kit (Perkin Elmer). T-FRET signal was measured with Tecan spark multimode plate reader. Data was analyzed by graph-pad prism9. EC50 s of the compounds of Formula (I) in restoration of cytokine release under adenosine agonist from the human PBMCS are presented in Table 2

[3] abbreviates: read-out: IL-2 restoration EC50.
The mark [4] stands for this setting: read-out: TNF-α restoration EC50.

Read-outs that look alike come from different tables or passages of the source.

Data on three compounds can be found in patent US12577247B2 (BUGWORKS RESEARCH, INC., priority 2021, dated 2026).

On to `CCc1c(C)nn2c(N)c(C#N)c(NCCc3ccn(C4(CO)CC4)n3)nc12` [Example 39, 7-amino-3-ethyl-5-((2-(1-(1-(hydroxymethyl)cyclopropyl)-1H-pyrazol-3-yl)ethyl)amino)-2-methylpyrazolo[1,5-a] pyrimidine-6-carbonitrile], for which, in series [1], the Papp A→B at 120 min, 10 µM was found to be 18.4 ×10⁻⁶ cm/s and the Papp B→A at 120 min, 10 µM is 18.5 ×10⁻⁶ cm/s. For the same compound, the EC50 in series [2] (setting [3]) stood at 4.2 nM. For the same compound, in series [2] (setting [4]), the EC50 is 2.3 nM.
The matching figures for `CCc1c(C)nn2c(N)c(C#N)c(NCCc3ccn(C4COCC4CO)n3)nc12` (single isomer, unassigned; (-)) [Example 122b, (−)-7-amino-3-ethyl-5-((2-(1-(4-(hydroxymethyl)tetrahydrofuran-3-yl)-1H-pyrazol-3-yl)ethyl)amino)-2-methyl pyrazolo[1,5-a]pyrimidine-6-carbonitrile]: 14.4 ×10⁻⁶ cm/s, 15.9 ×10⁻⁶ cm/s, 1.4 nM and 1.2 nM.
In series [1], `Cc1cccc(CCNc2nc3c(C)c(C)nn3c(N)c2C#N)n1` [Example 13, 7-amino-5-((2-(6-methylpyridin-2-yl)ethyl)amino)-2,3-dimethylpyrazolo[1,5-a]pyrimidine-6-carbonitrile] returned a Papp A→B at 120 min, 10 µM of 58 ×10⁻⁶ cm/s and a Papp B→A at 120 min, 10 µM of 19.5 ×10⁻⁶ cm/s. In addition, the EC50 in series [2] (setting [3]) came out at 5.5 nM. The EC50 in series [2] (setting [4]) was 5.2 nM.

In general, Papp A→B refers to the apparent permeability from the apical to the basolateral side of a cell layer. The low end stands for poor permeation, the high end for ready permeation. What is called Papp B→A is the apparent permeability from the basolateral to the apical side of a cell layer.
